{
  "source": "patent US12636259B2",
  "about": "“Transdermal absorption preparation” (Sumitomo Pharma Co., Ltd., priority 2020, dated 2026)",
  "assay": "Saturation solubility measurement of compound A in additives",
  "assay_type": "physicochemical",
  "conditions": "room temperature",
  "description": "Various additives were weighed into a vial, compound A was added until it was no longer dissolved, and the mixture was stirred overnight at room temperature. The mixture was filtered using a 0.45 μm PTFE filter and the concentration of compound A in the filtrate was quantified by high performance liquid chromatography (ODS column, UV detector). When the concentration of compound A exceeded 20%, the addition of compound A was stopped.",
  "data": [
    {"smiles": "O=C1[C@@H]2[C@H]3CC[C@H](C3)[C@@H]2C(=O)N1CCCCN1CCN(c2ncccn2)CC1", "note": "[compound A, (1R,2S,3R,4S)—N-[4-[4-(pyrimidin-2-yl)piperazin-1-yl]butyl]-2,3-bicyclo[2.2.1]heptan dicarboxyimide]", "values": [
      {"measurement": "saturation solubility of compound A (tandospirone)", "setting": "additive: N-methyl-2-pyrrolidone", "value": 15.4, "unit": "%"},
      {"measurement": "saturation solubility of compound A (tandospirone)", "setting": "additive: diisopropyl adipate", "value": 2.0, "unit": "%"},
      {"measurement": "saturation solubility of compound A (tandospirone)", "setting": "additive: dipropylene glycol", "value": 1.6, "unit": "%"},
      {"measurement": "saturation solubility of compound A (tandospirone)", "setting": "additive: isopropyl myristate", "value": 0.6, "unit": "%"},
      {"measurement": "saturation solubility of compound A (tandospirone)", "setting": "additive: lactic acid, stirred overnight, drug addition stopped when solubility exceeded 20%", "value": "not less than 20%"},
      {"measurement": "saturation solubility of compound A (tandospirone)", "setting": "additive: lauromacrogol (4)", "value": 2.0, "unit": "%"},
      {"measurement": "saturation solubility of compound A (tandospirone)", "setting": "additive: levulinic acid, drug addition stopped when solubility exceeded 20%", "value": "not less than 20%"},
      {"measurement": "saturation solubility of compound A (tandospirone)", "setting": "additive: oleic acid, drug addition stopped when solubility exceeded 20%", "value": "not less than 20%"},
      {"measurement": "saturation solubility of compound A (tandospirone)", "setting": "additive: oleyl alcohol", "value": 1.0, "unit": "%"},
      {"measurement": "saturation solubility of compound A (tandospirone)", "setting": "additive: polysorbate 20", "value": 1.4, "unit": "%"},
      {"measurement": "saturation solubility of compound A (tandospirone)", "setting": "additive: polysorbate 80", "value": 1.4, "unit": "%"},
      {"measurement": "saturation solubility of compound A (tandospirone)", "setting": "additive: propylene glycol fatty acid diester (C8)", "value": 1.3, "unit": "%"},
      {"measurement": "saturation solubility of compound A (tandospirone)", "setting": "additive: propylene glycol fatty acid ester (C8)", "value": 5.0, "unit": "%"},
      {"measurement": "saturation solubility of compound A (tandospirone)", "setting": "additive: propylene glycol fatty acid ester (C12)", "value": 5.9, "unit": "%"},
      {"measurement": "saturation solubility of compound A (tandospirone)", "setting": "additive: sorbitan monolaurate, measured as mixed solution isopropyl myristate/sorbitan monolaurate = 50/50", "value": 2.3, "unit": "%"}
    ]}
  ]
}
